The results in this text go back to PubChem BioAssay AID1648 (Sanford-Burnham Center for Chemical Genomics, 2009).

The test concerns the target Serine/threonine-protein kinase mTOR (Homo sapiens) (UniProt P42345). As to the kind of experiment: mTOR FRB domain ligand binding – biophysical, NMR (AID 1648). The following applies: NMR binding to FRB domain, chemical shift.

Active and inactive are the calls of the source. The rule behind the calls is not given here. Where only a bound is given, the exact number is not on record here.

Sequence of Serine/threonine-protein kinase mTOR (Homo sapiens) (P42345 2015-2114): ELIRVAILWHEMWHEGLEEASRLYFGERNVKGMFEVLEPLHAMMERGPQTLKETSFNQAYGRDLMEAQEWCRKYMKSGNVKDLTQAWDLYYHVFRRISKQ

`Clc1ccccc1-c1nc(-c2cccnc2)no1`: the Kd was > 4 mM (inactive).
The same measure for `Nc1cccc(F)c1-c1ncon1`: > 4 mM (inactive).
Under `O=C(O)CCCNC(=O)c1ccccc1C(=O)O` stands > 4 mM (inactive); under `O=C(CCc1ccc(O)cc1)c1c(O)cc(O)cc1O[C@@H]1O[C@H](CO)[C@@H](O)[C@H](O)[C@H]1O`, > 4 mM (inactive).
The same measure for `O=c1/c(=C\c2cccnc2)sc2nc3ccccc3n12`: > 4 mM (inactive); for `Cc1cc(=O)oc2cc(O)c(O)cc12`: > 4 mM (inactive); for `Cc1cc([N+](=O)[O-])cc[n+]1[O-]`: > 4 mM (inactive).
With `Cc1cccc(NC(=O)Nc2cc(C)on2)c1`, the Kd is > 4 mM (inactive).
`C/C=C(\C)c1nnc(NC(=O)c2ccco2)s1`: the Kd was > 4 mM (inactive).
Under `COc1cc2c(cc1-c1coc3c4c(c(OC)cc3c1=O)OC(C)(C)C=C4)OCO2` stands > 4 mM (inactive); under `CC1=C(/C=C/C(C)=C/C=C/C(C)=C/C=C/C=C(C)/C=C/C=C(C)/C=C/C(=O)[C@]2(C)C[C@@H](O)CC2(C)C)C(C)(C)C[C@H](O)C1`, > 4 mM (inactive).
The same measure for `CCn1cnc2cc(NCc3ccncc3)ccc21`: > 4 mM (inactive).
The same measure for `Cc1nn(-c2ccccc2)nc1CN`: > 4 mM (inactive).
Consider `CC(=O)c1cccc(NC(=O)NN2CCOCC2)c1`, for which the Kd was > 4 mM (inactive).
Turning to `NCc1ccc(S(N)(=O)=O)cc1`, the Kd was > 4 mM (inactive).
Consider `CC(C)=CC1C(C(=O)O)C1(C)C` (centres undefined), for which the Kd is > 4 mM (inactive).
The same measure for `Cc1occc1C(=O)NC1CCN(C)CC1`: > 4 mM (inactive); for `O=C(O)c1onc2ccccc12`: > 4 mM (inactive); for `CCC[C@H]1CC2=C(C[C@@H](CC)CC3=C1C(=O)OC3=O)C(=O)OC2=O`: > 4 mM (inactive).
Under `NC(=O)c1ccccc1NC(=O)c1cccnc1` stands > 4 mM (inactive); under `OCc1ccc(CN2CCOCC2)cc1`, > 4 mM (inactive); under `CCN1C(=O)c2cccc3c(S(N)(=O)=O)ccc1c23`, > 4 mM (inactive).
Regarding `CC1(C)NCCN2C(=O)CSC21` (centres undefined), the Kd was > 4 mM (inactive).
Turning to `O=C(NCc1ccccc1Br)c1ccco1`, the Kd was > 4 mM (inactive).
Regarding `Cc1n[nH]c(C)c1N`, the Kd was > 4 mM (inactive).
Take `C=CC(C)(O)CC/C=C(\C)CCC=C(C)C` (centres undefined): the Kd was > 4 mM (inactive).
Under `O=c1ccc2cc(O)c(O)cc2o1` stands > 4 mM (inactive); under `COC(=O)C[C@H]1C(C)(C)C(OC(C)=O)[C@]2(O)C=C3C(CC[C@]4(C)C3CC(=O)O[C@H]4c3ccoc3)C1(C)C2=O` (some centres undefined), > 4 mM (inactive); under `CN(C)c1ccc(CNn2cnnc2)cc1`, > 4 mM (inactive).
The same measure for `Cc1nc(-c2ccc(CO)s2)cs1`: > 4 mM (inactive); for `O=C(O)C1CC2CC1CCC2O` (centres undefined): > 4 mM (inactive).
On to `C=C[C@@]1(C)CC(=O)[C@@]2(O)[C@](C)(O1)[C@@H](OC(C)=O)[C@@H](O)C1C(C)(C)CC[C@H](O)[C@@]12C` (some centres undefined), for which the Kd was > 4 mM (inactive).
The same measure for `COc1ccc2nc(SCC(N)=O)[nH]c2c1`: > 4 mM (inactive).
The same measure for `CC(C)(C)P(=O)(O)c1ccccc1`: > 4 mM (inactive).
For the compound `O=S(=O)(O)c1cc[n+]([O-])cc1`, the Kd was > 4 mM (inactive).
Take `Cc1noc(C)c1C(=O)N1CCc2ccccc2C1`: the Kd is > 4 mM (inactive).
Turning to `O=C(O[C@@H]1Cc2c(O)cc(O)cc2O[C@@H]1c1cc(O)c(O)c(O)c1-c1c([C@H]2Oc3cc(O)cc(O)c3C[C@H]2O)cc(O)c(O)c1O)c1cc(O)c(O)c(O)c1`, the Kd is > 4 mM (inactive).
The same measure for `COC(=O)CSc1nnc(-c2ccc(C(=O)O)cc2)o1`: > 4 mM (inactive); for `COc1ccc(-c2cc(=O)c3c(O)c(OC)c(O[C@H]4O[C@H](CO[C@@H]5O[C@@H](C)[C@H](O)[C@@H](O)[C@H]5O)[C@@H](O)[C@H](O)[C@H]4O)cc3o2)cc1`: > 4 mM (inactive); for `O=C(CC1Nc2ccccc2NC1=O)Nc1ccc(O)cc1` (centres undefined): > 4 mM (inactive).
Regarding `CC1CCc2cc(F)ccc2N1C(=O)c1ccc(=O)[nH]n1` (centres undefined), the Kd is > 4 mM (inactive).
The same measure for `CCN=Cc1c(O)n(-c2ccccc2C)c(=O)[nH]c1=O`: > 4 mM (inactive).
For `O=C(CS(=O)(=O)c1ccccc1)Nc1nccs1`, the Kd was > 4 mM (inactive).
The same measure for `O=C(Cc1cccs1)Nc1nncs1`: > 4 mM (inactive); for `c1ccc(-c2csc3ncn4nnnc4c23)cc1`: > 4 mM (inactive).
The same measure for `C[C@H]1C(=O)O[C@@H]2CCN3CC=C(COC(=O)[C@](C)(O)[C@]1(C)O)[C@H]23`: > 4 mM (inactive); for `Cc1cc(N)n(C2CCOC(C)(C)C2)n1` (centres undefined): > 4 mM (inactive); for `c1cnc(N2CCNCC2)nc1`: > 4 mM (inactive).
`Cc1cc(C(=O)NCc2ccco2)cs1`: the Kd is > 4 mM (inactive).
`Cc1cc(C)n(C/C=C/Cn2nc(C)cc2C)n1`: the Kd was > 4 mM (inactive).
As for `Nc1nnc(COc2cccc(C(F)(F)F)c2)s1`, the Kd was > 4 mM (inactive).
In the case of `Cc1oc2nc3c(c(=O)[nH]c(=O)n3C)n2c1C`, the Kd was > 4 mM (inactive).
Under `CN1CCC(NC(=O)Cc2c(F)cccc2Cl)CC1` stands > 4 mM (inactive).
With `COc1ccc([C@H]2COc3c(ccc(O)c3OC)C2)c(OC)c1O`, the Kd is > 4 mM (inactive).
Turning to `CNc1nc(C)nc(-n2nc(C)cc2C)n1`, the Kd is > 4 mM (inactive).
The same measure for `Nc1nc2[nH]c(=O)c(=O)[nH]c2c(=O)[nH]1`: > 4 mM (inactive); for `CS(=O)(=O)NN=C1CCCCC1`: > 4 mM (inactive); for `CNC(=O)C1CCCN(S(C)(=O)=O)C1` (centres undefined): > 4 mM (inactive).
Turning to `COc1cc(/C=C2/NC(=S)NC2=O)cc(Cl)c1O`, the Kd was > 4 mM (inactive).
The same measure for `O=C1NCCCC1C(=O)N1CCCCC1` (centres undefined): > 4 mM (inactive); for `c1ccc(-c2nnc3sc(-c4ccncc4)nn23)cc1`: > 4 mM (inactive); for `CC[C@H](/C=C/C(C)C1CCC2C3CCC4=CC(=O)CC[C@]4(C)C3CC[C@]12C)C(C)C` (some centres undefined): > 4 mM (inactive).
The same measure for `COC(=O)N1CCN(c2ccc(C(C)=O)cc2)CC1`: > 4 mM (inactive).
Under `c1ccc2[nH]c(SCc3cscn3)nc2c1` stands > 4 mM (inactive).
In the case of `O=C(CC1NCCNC1=O)Nc1ccccc1` (centres undefined), the Kd was > 4 mM (inactive).
For `O=C1CCc2ccccc2CN1`, the Kd was > 4 mM (inactive).
Turning to `CCOC(=O)c1sc(SC)c2c1CCCC2O` (centres undefined), the Kd is > 4 mM (inactive).
As for `COCc1cc(=O)oc2cc(N)ccc12`, the Kd is > 4 mM (inactive).
Under `CCn1nccc1C(=O)Nc1ccc(Cl)cc1Cl` stands > 4 mM (inactive); under `Cc1nnc(Nc2cccnc2)[nH]c1=O`, > 4 mM (inactive); under `COc1ccc(N2C(=N)C(C)(C)NC2=O)cc1`, > 4 mM (inactive).
With `COc1ccc(C)cc1S(=O)(=O)N1CCCCC1`, the Kd was > 4 mM (inactive).
Under `NC(=O)CSc1ccc(-c2ccco2)nn1` stands > 4 mM (inactive); under `CCc1noc(C)c1C(=O)N1CCOCC1`, > 4 mM (inactive).
In the case of `Cn1nccc1N`, the Kd was > 4 mM (inactive).
Under `O=C(c1ccccc1)c1cncc(Br)c1` stands > 4 mM (inactive).
The same measure for `Cc1ccccc1-n1c(N)cc(=O)[nH]c1=S`: > 4 mM (inactive); for `COc1cccc(/C=N/N=C2/NC(=O)CS2)c1`: > 4 mM (inactive).
As to `COC(=O)C(O)[C@@H]1C2(C)C(=O)[C@@H](CC3=C4CC(=O)O[C@@H](c5ccoc5)[C@]4(C)CCC32)[C@H](OC(C)=O)C1(C)C` (some centres undefined), the Kd is > 4 mM (inactive).
Under `Cn1nnc2c(N3CCC(C(N)=O)CC3)ncnc21` stands > 4 mM (inactive).
Under `C/C=C/COc1nc2c(c(=O)n(C)c(=O)n2C)n1C` stands > 4 mM (inactive); under `O=C1CCCC(=O)N1c1ccc(O)cc1`, > 4 mM (inactive).
As to `Nc1cccc2c(=O)[nH][nH]c(=O)c12`, the Kd was > 4 mM (inactive).
The same measure for `COc1ccc2c(c1)[nH]c1c(C)nccc12`: > 4 mM (inactive); for `CC(Sc1ncn[nH]1)C(=O)O` (centres undefined): > 4 mM (inactive); for `Cn1c(=O)c2[nH]c(Nc3ccccc3)nc2n(C)c1=O`: > 4 mM (inactive).
Turning to `CC(=O)c1c(C)nc(C)nc1NC(=O)C(C)C`, the Kd is > 4 mM (inactive).
Under `CC(=O)c1cnc2nc(C(F)(F)F)nn2c1C` stands > 4 mM (inactive); under `Cc1cc(NC(=O)c2ccccc2C(=O)O)no1`, > 4 mM (inactive); under `CC(C)CCCC(C)C1CCC2C3C[C@@H](O)[C@@]4(O)C[C@@H](O)CC[C@]4(C)C3CC[C@]12C` (some centres undefined), > 4 mM (inactive).
As for `Cc1ccc(S(=O)(=O)/N=C2\NC(=O)CS2)cc1`, the Kd was > 4 mM (inactive).
The same measure for `COc1ccc(Cl)cc1NC(=O)C(N)=O`: > 4 mM (inactive).
As to `S=C1NC(=S)NC(c2ccc3c(c2)OCO3)N1`, the Kd was > 4 mM (inactive).
In the case of `Cc1cccnc1NC1=NCC(C)S1` (centres undefined), the Kd was > 4 mM (inactive).
As for `CN1CCC2(CC1)CC1CC3C=CC1(CN2)O3` (centres undefined), the Kd is > 4 mM (inactive).
`O=C(Nc1ccc2c(c1)OCO2)c1ccc(=O)[nH]n1`: the Kd was > 4 mM (inactive).
For the compound `CC1C[C@H]2CC(=O)[C@H]3CCCN4CCC[C@H]2[C@]34C1` (some centres undefined), the Kd was > 4 mM (inactive).
The same measure for `COc1c(-c2coc3cc4c(cc3c2=O)CC(OC(C)=O)C(C)(C)O4)ccc2c1C=CC(C)(C)O2` (centres undefined): > 4 mM (inactive); for `COC(=O)C1=CCCN(C)C1`: > 4 mM (inactive).
